This note sets out measurements from patent US7425218B2, “Nitric oxide-releasing medical devices” (The United States of America as represented by the …, priority 1992, dated 2008).

This series in a line: decomposition and nitric oxide production at pH 7 and 25° C. Type of series: physicochemical. Conditions: for half-life of decomposition: for the carbethoxy compound based on loss of the 252-nm chromophore in the UV spectrum. The protocol:
The analysis of NO adducts, i.e., polymers containing the nitric oxide-releasing N2O2^− functional group, was done on a nitric oxide analyzer and was patterned after the procedure of Maragos et al., J. Med. Chem., 34, 3242-3247 (1991). A reactor vessel fitted with a septum was charged with a small aliquot of the polymer to be studied and the system was purged with helium for several minutes to remove traces of oxygen. […]
To a solution of 510 mg (1.97 mmol) of 1-(N-acetyl-L-methionyl)piperazine in 1 ml of methanol was added 428 μl (1.97 mmol) of 25% sodium methoxide in methanol. The system was degassed and charged with 40 psi of nitric oxide. After exposure of the solution to NO for 120 h, the pressure was released and the solid product was collected by filtration, washed with ether, and dried to give 27 mg of 1-[4-(N-acetyl-L-methionyl)piperazin-l-yl]-1-oxo-2-hydroxydiazene, sodium salt, as a white solid: UV λmax (ε) 252 nm (12.0 mM^−1 cm^−1).
A solution of 20 g (0.126 mol) of ethyl 1-piperazinecarboxylate in 60 ml of methanol was placed in a Parr bottle. The solution was treated with 27.4 ml (0.126 mol) of 25% sodium methoxide in methanol. The system was evacuated, charged with 40 psi of nitric oxide and kept at 25° C. for 48 h. The white crystalline product was collected by filtration and washed with cold methanol as well as with copious amounts of ether. The product was dried under vacuum to give a 14.5 g (48%) yield of 1-(4-carbethoxypiperazin-1-yl)-1-oxo-2-hydroxydiazene, sodium salt: mp 184-5° C.; UV (0.01 M NaOH) λmax (ε) 252 nm (10.4 mM^−1 cm^−1); NMR (D2O) δ 1.25 (t, 3 H), 3.11 (m, 2 H), 3.68 (m, 2 H), 4.15 (q, 2 H). Anal Calcd. for C6H13N4O4Na: C, 35.00%; H, 5.42%; N, 23.33%; Na, 9.58%. Found: C, 34.87%; H, 5.53%; N, 23.26%; Na, 9.69%. The half-life of this compound at pH 7 and 25° C. was 5 min. This measurement was based on the loss of the 252-nm chromophore in the ultraviolet spectrum.

Counter-ions that a name gives are not always drawn.

`CCOC(=O)N1CCN([N+]([O-])=N[O-])CC1.[Na+]` [1-(4-carbethoxypiperazin-1-yl)-1-oxo-2-hydroxydiazene, sodium salt] came in with a half-life of decomposition of 5 min. Consider `CSCC[C@H](NC(C)=O)C(=O)N1CCN([N+]([O-])=NO)CC1` [1-[4-(N-acetyl-L-methionyl)piperazin-l-yl]-1-oxo-2-hydroxydiazene, sodium salt], for which the “moles of NO produced per mole of test agent” value is listed as 1.72 moles of NO per mole of test agent and the half-life of decomposition was found to be 6.9 min.
